Experimental data taken from patent EP4786487A1, “PEPTIDE” (Peptidream Inc, priority 2023, dated 2025).
Like-named read-outs stand apart in the source and are kept apart here. Starred links: 1 amine or outer side, 2 acyl side, 3 side chain; linkers in the order of their positions; H or OH if unused. Positions of bridges follow the written chain, without caps; N, C: chain ends. Non-standard residues stand in square brackets, D forms with d. Residues, ends and D or L forms follow the SMILES beside them. *: point of attachment. Phe(3-OCH2COOH) = N[C@@H](Cc1cccc(OCC(=O)O)c1)C(=O)O; Trp(1-Ph) = N[C@@H](Cc1cn(-c2ccccc2)c2ccccc12)C(=O)O; NMePhe(3-Ph) = CN[C@@H](Cc1cccc(-c2ccccc2)c1)C(=O)O; Phe(4-COOH) = N[C@@H](Cc1ccc(C(=O)O)cc1)C(=O)O; Piperazinyl(4-CH2COOH) = O=C(O)CN1CCN(*)CC1; Gly(decyl) = CCCCCCCCCC[C@H](N)C(=O)O; Gly(N(CH2)3COOH) = O=C(O)CCCNCC(=O)O; X1 = CCCCCCC[C@H](N[*:1])C(=O)[*:2]; NMeF = CN[C@@H](Cc1ccccc1)C(=O)O; 3Pal = N[C@@H](Cc1cccnc1)C(=O)O; 4Pal = N[C@@H](Cc1ccncc1)C(=O)O; NMeE = CN[C@@H](CCC(=O)O)C(=O)O; Cha = N[C@@H](CC1CCCCC1)C(=O)O; Ahp(2) = CCCCC[C@H](N)C(=O)O; dNMeC = CN[C@H](CS)C(=O)O; NMeA = CN[C@@H](C)C(=O)O; Sar = CNCC(=O)O

Key:
Myostatin = biological target: T1, Myostatin (Homo sapiens, UniProt O14793); assay: HepG2 reporter gene assay, Evaluation Procedure (2): 2-concentrations assay, myostatin inhibition; format: cell-based; conditions: HepG2
T1 construct: active myostatin (also called mature myostatin) is a homodimer consisting of two C-terminal growth factor domains; purchased R&D systems 788-G8/CF
T1 sequence (O14793 267-375): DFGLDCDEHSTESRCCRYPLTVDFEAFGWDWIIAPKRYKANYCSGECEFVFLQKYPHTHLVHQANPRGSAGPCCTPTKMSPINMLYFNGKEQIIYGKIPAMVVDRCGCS
Outline: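 Myostatin inhibition was measured in a luciferase reporter assay using HepG2 cells transfected with a pGL3 vector containing 12 CAGA repeats upstream of luciferase. After 20 to 24 hours with 10 ng/mL myostatin, cells received One-Glo:PBS (1:1) at 100 µL/well, were shaken for 5 min, and 20 µL/well was moved to 384-well plates and read on an Envision 2104.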

GDF-11 = biological target: T2, GDF-11 (Homo sapiens, UniProt O95390); assay: HepG2 reporter gene assay, Evaluation Procedure (2): 2-concentrations assay, GDF-11 inhibition; format: cell-based; conditions: for inhibition: read-out: inhibition rate (GDF-11 inhibition assay); for inhibition at 0.03 µM: HepG2, peptide 30nM, read-out: GDF11 Inhibition 30nM; for inhibition at 0.03 µM / inhibition at 0.1 µM: GDF-11 10 ng/mL; for inhibition at 0.1 µM: HepG2, peptide 100nM, read-out: GDF11 Inhibition 100nM
T2 construct: purchased R&D systems 1958-GD-G8/CF
T2 sequence (O95390 299-407): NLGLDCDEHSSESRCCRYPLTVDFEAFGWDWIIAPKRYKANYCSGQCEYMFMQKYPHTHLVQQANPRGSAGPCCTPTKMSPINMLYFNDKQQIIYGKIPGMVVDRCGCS
Outline: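 HepG2 cells carrying the transfected pGL3(CAGA)12-luc reporter, a pGL3 vector with luciferase placed downstream of 12 CAGA repeats, were stimulated with GDF-11 at a final 10 ng/mL together with test peptide. Blank wells received no GDF-11 and no peptide. Plates were incubated 20 to 24 hours at 37°C with 5% CO2. Luminescence from One-Glo substrate was read to calculate percent inhibition.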

[1] = Table 7-3/7-4, myostatin 10 ng/mL, peptide at the higher of the 2 concentrations, read-out: inhibition rate (myostatin inhibition assay)
[2] = Table 7-3/7-4, myostatin 10 ng/mL, peptide at the lower of the 2 concentrations, read-out: inhibition rate (myostatin inhibition assay)
[3] = HepG2, first GDF-11 column of Table 7-3/7-4, GDF-11 10 ng/mL, peptide at the lower of the 2 concentrations
[4] = HepG2, second GDF-11 column of Table 7-3/7-4, GDF-11 10 ng/mL, peptide at the higher of the 2 concentrations
[5] = peptide 30nM, Myostatin 10 ng/mL, read-out: Myostatin Inhibition 30nM
[6] = peptide 100nM, Myostatin 10 ng/mL, read-out: Myostatin Inhibition 100nM

Compound | inhibition at 0.1 µM (Myostatin; [1]) | inhibition at 0.03 µM (Myostatin; [2]) | inhibition (GDF-11; [3]) | inhibition (GDF-11; [4]) | inhibition at 0.03 µM (Myostatin; [5]) | inhibition at 0.1 µM (Myostatin; [6]) | inhibition at 0.03 µM (GDF-11) | inhibition at 0.1 µM (GDF-11)
CCCCCCCCCC[C@@H]1NC(=O)[C@H](CC2CCCCC2)NC(=O)[C@H](CCCNC(=N)N)NC(=O)[C@H](Cc2ccc(C(=O)O)cc2)NC(=O)[C@H](Cc2cccc(OCC(=O)O)c2)NC(=O)[C@H](C)N(C)C(=O)[C@H]([C@@H](C)CC)NC(=O)[C@H](Cc2ccccc2)N(C)C(=O)[C@H](Cc2ccc(O)cc2)NC(=O)[C@H](Cc2cn(-c3ccccc3)c3ccccc23)NC(=O)[C@H](C)NC(=O)[C@H](C)NC(=O)CSC[C@H](C(=O)N2CCN(CC(=O)O)CC2)NC(=O)[C@H](Cc2cccc(-c3ccccc3)c2)N(C)C(=O)[C@H](CCC(=O)O)N(C)C1=O [Myostatin_99_v332] ({CH2CO}-AA[Trp(1-Ph)]Y[NMeF]I[NMeA][Phe(3-OCH2COOH)][Phe(4-COOH)]R[Cha][Gly(decyl)][NMeE][NMePhe(3-Ph)][dC]-{Piperazinyl(4-CH2COOH)}; thioether N-15) | 100% | 100% | 0% | 0% | – | – | – | –
CC[C@H](C)[C@@H]1NC(=O)[C@H](Cc2ccccc2)N(C)C(=O)[C@H](Cc2ccc(O)cc2)NC(=O)[C@H](Cc2c[nH]c3ccccc23)NC(=O)[C@H](C)NC(=O)CN(CCCC(=O)O)C(=O)CSC[C@H](C(N)=O)NC(=O)[C@H](Cc2ccccc2)N(C)C(=O)[C@H](C)N(C)C(=O)[C@H](CC(C)C)NC(=O)[C@H](Cc2ccccc2)N(C)C(=O)[C@H](CCCNC(=N)N)NC(=O)[C@H](Cc2cccnc2)NC(=O)[C@H](Cc2ccncc2)NC(=O)CN(C)C1=O [Myostatin_99_Variant_23] ({CH2CO}-[Gly(N(CH2)3COOH)]AWY[NMeF]I[Sar][4Pal][3Pal]R[NMeF]L[NMeA][NMeF][dC]-NH2; thioether N-15) | – | – | – | – | 32% | 71% | 0% | 0%
CCCCCCC[C@@H]1NC(=O)[C@H](Cc2ccccc2)N(C)C(=O)[C@H](CCCNC(=N)N)NC(=O)[C@H](Cc2ccc(C(=O)O)cc2)NC(=O)[C@H](Cc2cccc(OCC(=O)O)c2)NC(=O)[C@H](C)N(C)C(=O)[C@H]([C@@H](C)CC)NC(=O)[C@H](Cc2ccccc2)N(C)C(=O)[C@H](Cc2ccc(O)cc2)NC(=O)[C@H](Cc2c[nH]c3ccccc23)NC(=O)[C@H](C)NC(=O)CN(CCCC(=O)O)C(=O)CSC[C@H](C(N)=O)N(C)C(=O)[C@H](Cc2ccccc2)N(C)C(=O)[C@H](C)N(C)C1=O [Myostatin_99_v439] ({CH2CO}-[Gly(N(CH2)3COOH)]AWY[NMeF]I[NMeA][Phe(3-OCH2COOH)][Phe(4-COOH)]R[NMeF][X1][NMeA][NMeF][dNMeC]-NH2; thioether N-15) | 100% | 100% | 2% | 36% | – | – | – | –
CCCCC[C@@H]1NC(=O)[C@H](Cc2ccccc2)N(C)C(=O)[C@H](CCCNC(=N)N)NC(=O)[C@H](Cc2ccc(C(=O)O)cc2)NC(=O)[C@H](Cc2cccc(OCC(=O)O)c2)NC(=O)CN(C)C(=O)[C@H]([C@@H](C)CC)NC(=O)[C@H](Cc2ccccc2)N(C)C(=O)[C@H](Cc2ccc(O)cc2)NC(=O)[C@H](Cc2c[nH]c3ccccc23)NC(=O)[C@H](C)NC(=O)[C@H](C)NC(=O)CSC[C@H](C(N)=O)NC(=O)[C@H](Cc2ccccc2)N(C)C(=O)[C@H](C)N(C)C1=O [Myostatin_99_v206] ({CH2CO}-AAWY[NMeF]I[Sar][Phe(3-OCH2COOH)][Phe(4-COOH)]R[NMeF][Ahp(2)][NMeA][NMeF][dC]-NH2; thioether N-15) | – | – | – | – | 88% | 97% | 0% | 0%
